Where no end group is shown, it is not given here.
What was measured:
[1] = test system: low grade prostate cancer (Gleason grade 6); experiment: clinical study: hemi-prostate multifocal cancer with Gleason upgrade (Example 1); type: in vivo, human; conditions: for % Imp. (hemi-prostate multifocal cancer with Gleason upgrade): vs active surveillance control
Description: (§1) In a series of clinical studies a total of 146 men with low grade prostate cancer (Gleason grade 6) were treated in the following manner. Patients were randomized and treated with a transrectal intraprostatic single injection of a composition comprising 2.5 mg FT (n=49), or a composition comprising 15 mg FT (n=48), or were subject to control active surveillance (n=49). After the first follow-up biopsy at 45 days post-randomization, 18 patients in the control active surveillance group crossed over to a single administration of a composition comprising 2.5 mg FT. Patients were followed for 5 years including biopsies at baseline, 45 days, 18, 36, and 60 months, and urological evaluations with PSA every 6 months. Patients with Gleason grade increase or who elected surgical or radiotherapeutic intervention exited the study and were still included in the data analysis. Percentage of normal biopsies in the baseline focus quadrant and median tumor grade and volume were assessed; progression was measured by clinical and pathological outcomes including Gleason grade in the entire prostate sampled as well as for the treated prostate lobe. Interventions associated with Gleason grade increase as well as total incidence for any intervention was assessed.

[2] = test system: low grade prostate cancer (Gleason grade 6); experiment: clinical study: hemi-prostate multifocal cancer with increase in Gleason primary pattern (Example 2); type: in vivo, human; conditions: for % Imp. (hemi-prostate multifocal cancer with increase in Gleason primary pattern): vs active surveillance control
Description: as §1

[3] = test system: low grade prostate cancer (Gleason grade 6); experiment: clinical study: cancer treatment with new multifocal with increased Gleason grade in the hemi-prostate (Example 3); type: in vivo, human; conditions: for % Imp. (cancer treatment with new multifocal with increased Gleason grade in the hemi-prostate): vs active surveillance control
Description: as §1
This example evaluated the percentage of patients who had conventional cancer treatment (e.g., surgery, radiotherapy, and/or chemotherapy), and who and who had multifocal prostate cancer in the lobe (or hemi-prostate) in which the foci were initially treated with Gleason upgrade (cancer treatment with new multifocal with increased Gleason grade in the hemi-prostate).

[4] = test system: low grade prostate cancer (Gleason grade 6); experiment: clinical study: cancer treatment with new multifocal and an increase in Gleason grade primary pattern in the hemi-prostate (Example 4); type: in vivo, human; conditions: for % Imp. (cancer treatment with new multifocal and an increase in Gleason grade primary pattern in the hemi-prostate): vs active surveillance control
Description: as §1
This example evaluated the percentage of patients having conventional cancer treatment (surgery, radiotherapy, or chemotherapy), and having multifocal prostate cancer in the lobe (or hemi-prostate) in which the foci were initially treated with Gleason primary pattern (cancer treatment with new multifocal and an increase in Gleason grade primary pattern in the hemi-prostate).

[5] = test system: prostate glandular epithelial cells; experiment: tissue culture genetic array, in vitro; type: cell-based
Text: Use of FT is a preferred embodiment. FT is a new molecular entity which in vitro stimulates caspase pathways (activation of caspases 7, 8, and 10, caspase recruitment domains 6, 11, and 14, and DIABLO), tumor necrosis factor pathways (activation of TNF1, TNFSF6, TNFSF8, TNFSF9, CD70 ligands, and TNFRSF19L, TNFRSF25, TRAF2, TRAF3, TRAF4, TRAF6 receptors), and BCL pathways (activation of BIK, HRK, BCL2L10 and BCL3) in prostate glandular epithelial cells, based on tissue culture genetic array data. […] The apoptotic process leads to typical ultrastructural progressive changes of membranous disruption and swelling, progressively deepening nuclear invaginations with eventual membranous bleb formations and cell death and fragmentation into apoptotic bodies. Histologically, typical apoptotic changes with positive immunohistochemical staining of markers for apoptosis are found throughout the injected areas for up to several weeks after treatment.

[6] = FT 2.5 mg, single transrectal intraprostatic injection, <= 18 mos from treatment
[7] = FT 2.5 mg, single transrectal intraprostatic injection, <= 36 mos from treatment
[8] = FT 2.5 mg, single transrectal intraprostatic injection, <= 48 mos from treatment
[9] = FT 15 mg, single transrectal intraprostatic injection, <= 18 mos from treatment
[10] = FT 15 mg, single transrectal intraprostatic injection, <= 36 mos from treatment
[11] = FT 15 mg, single transrectal intraprostatic injection, <= 48 mos from treatment
[12] = Pooled FT (2.5 mg and 15 mg), <= 18 mos from treatment
[13] = Pooled FT (2.5 mg and 15 mg), <= 36 mos from treatment
[14] = Pooled FT (2.5 mg and 15 mg), <= 48 mos from treatment

Ile-Asp-Gln-Gln-Val-Leu-Ser-Arg-Ile-Lys-Leu-Glu-Ile-Lys-Arg-Cys-Leu (IDQQVLSRIKLEIKRCL; also: trifluoroacetate salt) [FT]
percentage of patients with hemi-prostate multifocal cancer with Gleason upgrade [1, 6]: 8.6% | percentage of patients with hemi-prostate multifocal cancer with Gleason upgrade [1, 7]: 16.7% | percentage of patients with hemi-prostate multifocal cancer with Gleason upgrade [1, 8]: 42.9% | % Imp. (hemi-prostate multifocal cancer with Gleason upgrade) ([1]; FT 2.5 mg, <= 18 mos): 54.26% | % Imp. (hemi-prostate multifocal cancer with Gleason upgrade) ([1]; FT 2.5 mg, <= 36 mos): 53.2% | % Imp. (hemi-prostate multifocal cancer with Gleason upgrade) ([1]; FT 2.5 mg, <= 48 mos): 5.7% | percentage of patients with hemi-prostate multifocal cancer with Gleason upgrade [1, 9]: 5.7% | percentage of patients with hemi-prostate multifocal cancer with Gleason upgrade [1, 10]: 9.1% | percentage of patients with hemi-prostate multifocal cancer with Gleason upgrade [1, 11]: 13.3% | % Imp. (hemi-prostate multifocal cancer with Gleason upgrade) ([1]; FT 15 mg, <= 18 mos): 69.7% | % Imp. (hemi-prostate multifocal cancer with Gleason upgrade) ([1]; FT 15 mg, <= 36 mos): 74.5% | % Imp. (hemi-prostate multifocal cancer with Gleason upgrade) ([1]; FT 15 mg, <= 48 mos): 70.8% | percentage of patients with hemi-prostate multifocal cancer with Gleason upgrade [1, 12]: 7.1% | percentage of patients with hemi-prostate multifocal cancer with Gleason upgrade [1, 13]: 13.0% | percentage of patients with hemi-prostate multifocal cancer with Gleason upgrade [1, 14]: 27.6% | % Imp. (hemi-prostate multifocal cancer with Gleason upgrade) ([1]; Pooled FT, <= 18 mos): 62.2% | % Imp. (hemi-prostate multifocal cancer with Gleason upgrade) ([1]; Pooled FT, <= 36 mos): 63.6% | % Imp. (hemi-prostate multifocal cancer with Gleason upgrade) ([1]; Pooled FT, <= 48 mos): 39.3% | percentage of patients with hemi-prostate multifocal cancer with increase in Gleason primary pattern [2, 6]: 0% | percentage of patients with hemi-prostate multifocal cancer with increase in Gleason primary pattern [2, 7]: 0% | percentage of patients with hemi-prostate multifocal cancer with increase in Gleason primary pattern [2, 8]: 0% | % Imp. (hemi-prostate multifocal cancer with increase in Gleason primary pattern) ([2]; FT 2.5 mg, <= 18 mos): 100% | % Imp. (hemi-prostate multifocal cancer with increase in Gleason primary pattern) ([2]; FT 2.5 mg, <= 36 mos): 100% | % Imp. (hemi-prostate multifocal cancer with increase in Gleason primary pattern) ([2]; FT 2.5 mg, <= 48 mos): 100% | percentage of patients with hemi-prostate multifocal cancer with increase in Gleason primary pattern [2, 9]: 2.9% | percentage of patients with hemi-prostate multifocal cancer with increase in Gleason primary pattern [2, 10]: 4.5% | percentage of patients with hemi-prostate multifocal cancer with increase in Gleason primary pattern [2, 11]: 6.7% | % Imp. (hemi-prostate multifocal cancer with increase in Gleason primary pattern) ([2]; FT 15 mg, <= 18 mos): 76.8% | % Imp. (hemi-prostate multifocal cancer with increase in Gleason primary pattern) ([2]; FT 15 mg, <= 36 mos): 79% | % Imp. (hemi-prostate multifocal cancer with increase in Gleason primary pattern) ([2]; FT 15 mg, <= 48 mos): 75.5% | percentage of patients with hemi-prostate multifocal cancer with increase in Gleason primary pattern [2, 12]: 1.4% | percentage of patients with hemi-prostate multifocal cancer with increase in Gleason primary pattern [2, 13]: 2.2% | percentage of patients with hemi-prostate multifocal cancer with increase in Gleason primary pattern [2, 14]: 3.4% | % Imp. (hemi-prostate multifocal cancer with increase in Gleason primary pattern) ([2]; Pooled FT, <= 18 mos): 88.8% | % Imp. (hemi-prostate multifocal cancer with increase in Gleason primary pattern) ([2]; Pooled FT, <= 36 mos): 89.7% | % Imp. (hemi-prostate multifocal cancer with increase in Gleason primary pattern) ([2]; Pooled FT, <= 48 mos): 87.5% | percentage of patients with cancer treatment with new multifocal with increased Gleason grade in the hemi-prostate [3, 6]: 4.9% | percentage of patients with cancer treatment with new multifocal with increased Gleason grade in the hemi-prostate [3, 7]: 10% | percentage of patients with cancer treatment with new multifocal with increased Gleason grade in the hemi-prostate [3, 8]: 17.4% | % Imp. (cancer treatment with new multifocal with increased Gleason grade in the hemi-prostate) ([3]; FT 2.5 mg, <= 18 mos): 69% | % Imp. (cancer treatment with new multifocal with increased Gleason grade in the hemi-prostate) ([3]; FT 2.5 mg, <= 36 mos): 57.4% | % Imp. (cancer treatment with new multifocal with increased Gleason grade in the hemi-prostate) ([3]; FT 2.5 mg, <= 48 mos): 44.4% | percentage of patients with cancer treatment with new multifocal with increased Gleason grade in the hemi-prostate [3, 9]: 5.1% | percentage of patients with cancer treatment with new multifocal with increased Gleason grade in the hemi-prostate [3, 10]: 7.1% | percentage of patients with cancer treatment with new multifocal with increased Gleason grade in the hemi-prostate [3, 11]: 8.3% | % Imp. (cancer treatment with new multifocal with increased Gleason grade in the hemi-prostate) ([3]; FT 15 mg, <= 18 mos): 67.7% | % Imp. (cancer treatment with new multifocal with increased Gleason grade in the hemi-prostate) ([3]; FT 15 mg, <= 36 mos): 69.8% | % Imp. (cancer treatment with new multifocal with increased Gleason grade in the hemi-prostate) ([3]; FT 15 mg, <= 48 mos): 73.5% | percentage of patients with cancer treatment with new multifocal with increased Gleason grade in the hemi-prostate [3, 12]: 5% | percentage of patients with cancer treatment with new multifocal with increased Gleason grade in the hemi-prostate [3, 13]: 8.6% | percentage of patients with cancer treatment with new multifocal with increased Gleason grade in the hemi-prostate [3, 14]: 12.8% | % Imp. (cancer treatment with new multifocal with increased Gleason grade in the hemi-prostate) ([3]; Pooled FT, <= 18 mos): 68.4% | % Imp. (cancer treatment with new multifocal with increased Gleason grade in the hemi-prostate) ([3]; Pooled FT, <= 36 mos): 63.4% | % Imp. (cancer treatment with new multifocal with increased Gleason grade in the hemi-prostate) ([3]; Pooled FT, <= 48 mos): 59.1% | percentage of patients with cancer treatment with new multifocal and an increase in Gleason grade primary pattern in the hemi-prostate [4, 6]: 0% | percentage of patients with cancer treatment with new multifocal and an increase in Gleason grade primary pattern in the hemi-prostate [4, 7]: 0% | percentage of patients with cancer treatment with new multifocal and an increase in Gleason grade primary pattern in the hemi-prostate [4, 8]: 0% | % Imp. (cancer treatment with new multifocal and an increase in Gleason grade primary pattern in the hemi-prostate) ([4]; FT 2.5 mg, <= 18 mos): 100% | % Imp. (cancer treatment with new multifocal and an increase in Gleason grade primary pattern in the hemi-prostate) ([4]; FT 2.5 mg, <= 36 mos): 100% | % Imp. (cancer treatment with new multifocal and an increase in Gleason grade primary pattern in the hemi-prostate) ([4]; FT 2.5 mg, <= 48 mos): 100% | percentage of patients with cancer treatment with new multifocal and an increase in Gleason grade primary pattern in the hemi-prostate [4, 9]: 2.6% | percentage of patients with cancer treatment with new multifocal and an increase in Gleason grade primary pattern in the hemi-prostate [4, 10]: 3.6% | percentage of patients with cancer treatment with new multifocal and an increase in Gleason grade primary pattern in the hemi-prostate [4, 11]: 4.2% | % Imp. (cancer treatment with new multifocal and an increase in Gleason grade primary pattern in the hemi-prostate) ([4]; FT 15 mg, <= 18 mos): 75.2% | % Imp. (cancer treatment with new multifocal and an increase in Gleason grade primary pattern in the hemi-prostate) ([4]; FT 15 mg, <= 36 mos): 79.5% | % Imp. (cancer treatment with new multifocal and an increase in Gleason grade primary pattern in the hemi-prostate) ([4]; FT 15 mg, <= 48 mos): 77.7% | percentage of patients with cancer treatment with new multifocal and an increase in Gleason grade primary pattern in the hemi-prostate [4, 12]: 1.3% | percentage of patients with cancer treatment with new multifocal and an increase in Gleason grade primary pattern in the hemi-prostate [4, 13]: 1.7% | percentage of patients with cancer treatment with new multifocal and an increase in Gleason grade primary pattern in the hemi-prostate [4, 14]: 2.1% | % Imp. (cancer treatment with new multifocal and an increase in Gleason grade primary pattern in the hemi-prostate) ([4]; Pooled FT, <= 18 mos): 87.6% | % Imp. (cancer treatment with new multifocal and an increase in Gleason grade primary pattern in the hemi-prostate) ([4]; Pooled FT, <= 36 mos): 90.3% | % Imp. (cancer treatment with new multifocal and an increase in Gleason grade primary pattern in the hemi-prostate) ([4]; Pooled FT, <= 48 mos): 88.8% | effect on BCL pathways (activation of BIK, HRK, BCL2L10 and BCL3) [5]: stimulates | effect on caspase pathways (activation of caspases 7, 8, and 10, caspase recruitment domains 6, 11, and 14, and DIABLO) [5]: stimulates | effect on tumor necrosis factor pathways (activation of TNF1, TNFSF6, TNFSF8, TNFSF9, CD70 ligands, and TNFRSF19L, TNFRSF25, TRAF2, TRAF3, TRAF4, TRAF6 receptors) [5]: stimulates
